Reference: PMC9516332 (Frontiers in Oncology, 2022)
Read-outs that look alike come from different tables or passages of the source.

How the values were obtained:
134 cancer cell lines = assay: Cell viability assay (ATPlite, 72 hours), IC50 on cancer cell line panel
AP-1060 (ETV6-NTRK3) = assay: Cell viability assay; details: read-out: IC50 in cell proliferation assay

IC50 (134 cancer cell lines; Homo sapiens, MV4-11, read-out: IC50 in cell proliferation assay, MV4-11 cell line (FLT3 ITD)): 1.23 µM
IC50 (134 cancer cell lines; Homo sapiens, MeWo, read-out: IC50 in cell proliferation assay, MeWo cell line): 3.2 µM
IC50 (134 cancer cell lines; Homo sapiens, NCCIT, read-out: IC50 in cell proliferation assay, NCC-IT cell line): 3.11 µM
IC50 (134 cancer cell lines; Homo sapiens, NCI-H82, read-out: IC50 in cell proliferation assay, cell line NCI-H82): 1.57 µM
IC50 (134 cancer cell lines; Homo sapiens, NCI-H460, read-out: IC50 in cell proliferation assay, NCI-H460 cell line): 3.16 µM
IC50 (134 cancer cell lines; Homo sapiens, NCI-H661, read-out: IC50 in cell proliferation assay, NCI-H661 cell line): 3.47 µM
IC50 (134 cancer cell lines; Homo sapiens, NCI-H716, read-out: IC50 in cell proliferation assay, cell line NCI-H716 (FGFR2-COL14A1)): 1.55 µM
IC50 (134 cancer cell lines; Homo sapiens, NCI-H1650, read-out: IC50 in cell proliferation assay, NCI-H1650 cell line (EGFR exon19del)): 3.38 µM
IC50 (134 cancer cell lines; Homo sapiens, NCI-H1975, read-out: IC50 in cell proliferation assay, NCI-H1975 cell line (EGFR p.L858R + p.T790M)): 1.92 µM
IC50 (134 cancer cell lines; Homo sapiens, NCI-H2228, read-out: IC50 in cell proliferation assay, NCI-H2228 cell line (EML4-ALK)): 0.038 µM
IC50 (134 cancer cell lines; Homo sapiens, OVCAR-3, read-out: IC50 in cell proliferation assay, cell line OVCAR-3): 5.14 µM
IC50 (134 cancer cell lines; Homo sapiens, PFSK-1, read-out: IC50 in cell proliferation assay, cell line PFSK-1): 1.54 µM
IC50 (134 cancer cell lines; Homo sapiens, RL95-2, read-out: IC50 in cell proliferation assay, cell line RL95-2 (EGFR p.A289V)): 1.76 µM
IC50 (134 cancer cell lines; Homo sapiens, RPMI-7951, read-out: IC50 in cell proliferation assay, cell line RPMI-7951 (BRAF p.V600E)): 3.68 µM
IC50 (134 cancer cell lines; Homo sapiens, RS4-11, read-out: IC50 in cell proliferation assay, cell line RS4;11): 1.08 µM
IC50 (134 cancer cell lines; Homo sapiens, Rec1, read-out: IC50 in cell proliferation assay, cell line REC-1): 2.21 µM
IC50 (134 cancer cell lines; Homo sapiens, SHP77, read-out: IC50 in cell proliferation assay, cell line SHP-77): 3.4 µM
IC50 (134 cancer cell lines; Homo sapiens, SK-BR-3, read-out: IC50 in cell proliferation assay, cell line SK-BR-3 (ERBB2 amplification)): 3.91 µM
IC50 (134 cancer cell lines; Homo sapiens, SK-N-AS, read-out: IC50 in cell proliferation assay, cell line SK-N-AS): 2.09 µM
IC50 (134 cancer cell lines; Homo sapiens, SK-N-FI, read-out: IC50 in cell proliferation assay, cell line SK-N-FI): 0.537 µM
IC50 (134 cancer cell lines; Homo sapiens, SK-N-MC, read-out: IC50 in cell proliferation assay, cell line SK-N-MC): 0.709 µM
IC50 (134 cancer cell lines; Homo sapiens, SK-N-SH, read-out: IC50 in cell proliferation assay, cell line SK-N-SH (ALK p.F1174L)): 0.875 µM
IC50 (134 cancer cell lines; Homo sapiens, SNU-5, read-out: IC50 in cell proliferation assay, cell line SNU-5 (MET amplification)): 3.87 µM
IC50 (134 cancer cell lines; Homo sapiens, SNU-16, read-out: IC50 in cell proliferation assay, cell line SNU-16 (FGFR2 amplification)): 3.8 µM
IC50 (134 cancer cell lines; Homo sapiens, SNU-C2B, read-out: IC50 in cell proliferation assay, cell line SNU-C2B (EGFR p.R165Q)): 2.54 µM
IC50 (134 cancer cell lines; Homo sapiens, SU-DHL-1, read-out: IC50 in cell proliferation assay, cell line SU-DHL-1 (NPM1-ALK)): 0.192 µM
IC50 (134 cancer cell lines; Homo sapiens, SU-DHL-6, read-out: IC50 in cell proliferation assay, cell line SU-DHL-6): 2.95 µM
IC50 (134 cancer cell lines; Homo sapiens, SUP-T1, read-out: IC50 in cell proliferation assay, cell line SUP-T1): 3.5 µM
IC50 (134 cancer cell lines; Homo sapiens, SW48, read-out: IC50 in cell proliferation assay, cell line SW48 (EGFR p.G719S)): 1.29 µM
IC50 (134 cancer cell lines; Homo sapiens, SW480, read-out: IC50 in cell proliferation assay, cell line SW480): 2.44 µM
IC50 (134 cancer cell lines; Homo sapiens, SW626, read-out: IC50 in cell proliferation assay, cell line SW626): 3.43 µM
IC50 (134 cancer cell lines; Homo sapiens, SW780, read-out: IC50 in cell proliferation assay, cell line SW780 (FGFR3-BAIAP2L1)): 2.07 µM
IC50 (134 cancer cell lines; Homo sapiens, SW837, read-out: IC50 in cell proliferation assay, cell line SW837): 2.94 µM
IC50 (134 cancer cell lines; Homo sapiens, SW872, read-out: IC50 in cell proliferation assay, cell line SW872 (BRAF p.V600E)): 2.78 µM
IC50 (134 cancer cell lines; Homo sapiens, SW900, read-out: IC50 in cell proliferation assay, cell line SW900): 2.34 µM
IC50 (134 cancer cell lines; Homo sapiens, SW948, read-out: IC50 in cell proliferation assay, cell line SW948): 2.28 µM
IC50 (134 cancer cell lines; Homo sapiens, SW982, read-out: IC50 in cell proliferation assay, cell line SW982 (BRAF p.V600E)): 4.15 µM
IC50 (134 cancer cell lines; Homo sapiens, SW-620, read-out: IC50 in cell proliferation assay, cell line SW620): 1.55 µM
IC50 (134 cancer cell lines; Homo sapiens, T98G, read-out: IC50 in cell proliferation assay, cell line T98G): 4.7 µM
IC50 (134 cancer cell lines; Homo sapiens, TCC-SUP, read-out: IC50 in cell proliferation assay, cell line TCCSUP): 3.82 µM
IC50 (134 cancer cell lines; Homo sapiens, THP-1, read-out: IC50 in cell proliferation assay, cell line THP-1): 4.75 µM
IC50 (134 cancer cell lines; Homo sapiens, U2OS, read-out: IC50 in cell proliferation assay, cell line U2OS): 3.86 µM
IC50 (134 cancer cell lines; Homo sapiens, U-87 MG, read-out: IC50 in cell proliferation assay, cell line U-87MG ATCC): 4.44 µM
IC50 (134 cancer cell lines; Homo sapiens, U-118-MG, read-out: IC50 in cell proliferation assay, cell line U-118MG): 3.85 µM
IC50 (134 cancer cell lines; Homo sapiens, UMUC3, read-out: IC50 in cell proliferation assay, cell line UM-UC-3): 2.57 µM
IC50 (134 cancer cell lines; Hs766T, read-out: IC50 in cell proliferation assay, Hs 766T cell line): 3.52 µM
IC50 (134 cancer cell lines; L-82, read-out: IC50 in cell proliferation assay, L-82 cell line (NPM1-ALK)): 0.033 µM
IC50 (134 cancer cell lines; Rh30, read-out: IC50 in cell proliferation assay, cell line Rh30): 1.01 µM
IC50 (134 cancer cell lines; read-out: IC50 in cell proliferation assay, 11-18 cell line (EGFR p.L858R)): 2.09 µM
IC50 (134 cancer cell lines; read-out: IC50 in cell proliferation assay, Hs 852.T cell line): 1.87 µM
IC50 (134 cancer cell lines; read-out: IC50 in cell proliferation assay, JAR cell line): 3.58 µM
IC50 (134 cancer cell lines; read-out: IC50 in cell proliferation assay, cell line 5637): 2.49 µM
IC50 (134 cancer cell lines; read-out: IC50 in cell proliferation assay, cell line A-388): 3.64 µM
IC50 (134 cancer cell lines; read-out: IC50 in cell proliferation assay, cell line DB): 3.99 µM
IC50 (134 cancer cell lines; read-out: IC50 in cell proliferation assay, cell line DEL (NPM1-ALK)): 0.062 µM
IC50 (134 cancer cell lines; read-out: IC50 in cell proliferation assay, cell line ES-2 (BRAF p.V600E)): 2.81 µM
IC50 (134 cancer cell lines; read-out: IC50 in cell proliferation assay, cell line PA-1): 2.08 µM
IC50 (134 cancer cell lines; read-out: IC50 in cell proliferation assay, cell line PC-3): 4.05 µM
IC50 (134 cancer cell lines; read-out: IC50 in cell proliferation assay, cell line RD): 1.71 µM
IC50 (134 cancer cell lines; read-out: IC50 in cell proliferation assay, cell line RKO (BRAF p.V600E)): 1.63 µM
IC50 (134 cancer cell lines; read-out: IC50 in cell proliferation assay, cell line RL): 4.06 µM
IC50 (134 cancer cell lines; read-out: IC50 in cell proliferation assay, cell line RT-4 (FGFR3-TACC3)): 4.05 µM
IC50 (134 cancer cell lines; read-out: IC50 in cell proliferation assay, cell line SR (NPM1-ALK)): 0.2 µM
IC50 (134 cancer cell lines; read-out: IC50 in cell proliferation assay, cell line T24): 4.04 µM
IC50 (134 cancer cell lines; read-out: IC50 in cell proliferation assay, cell line TT (RET p.C634W)): 3.83 µM
IC50 (134 cancer cell lines; read-out: IC50 in cell proliferation assay, cell line VA-ES-BJ): 4.25 µM
Compound: Cc1cc(Nc2ncc(Cl)c(Nc3ccccc3S(=O)(=O)C(C)C)n2)c(OC(C)C)cc1C1CCNCC1 [ceritinib]
IC50 (AP-1060 (ETV6-NTRK3)): 1.77 µM
